Results as given in ChEMBL document CHEMBL2331354, “Spirocyclic replacements for the isatin in the highly selective, muscarinic M1 PAM ML137: the continued optimization of an MLPCN probe molecule” (Bioorg Med Chem Lett, 2013).
Active and inactive are the calls of the source. No cut-off for these calls is given here.

Legend:
[1] = target: T1, Muscarinic acetylcholine receptor M1 (Homo sapiens) (UniProt P11229); assay: Positive allosteric modulation of human muscarinic M1 receptor relative to acetylcholine
T1 sequence (whole entry): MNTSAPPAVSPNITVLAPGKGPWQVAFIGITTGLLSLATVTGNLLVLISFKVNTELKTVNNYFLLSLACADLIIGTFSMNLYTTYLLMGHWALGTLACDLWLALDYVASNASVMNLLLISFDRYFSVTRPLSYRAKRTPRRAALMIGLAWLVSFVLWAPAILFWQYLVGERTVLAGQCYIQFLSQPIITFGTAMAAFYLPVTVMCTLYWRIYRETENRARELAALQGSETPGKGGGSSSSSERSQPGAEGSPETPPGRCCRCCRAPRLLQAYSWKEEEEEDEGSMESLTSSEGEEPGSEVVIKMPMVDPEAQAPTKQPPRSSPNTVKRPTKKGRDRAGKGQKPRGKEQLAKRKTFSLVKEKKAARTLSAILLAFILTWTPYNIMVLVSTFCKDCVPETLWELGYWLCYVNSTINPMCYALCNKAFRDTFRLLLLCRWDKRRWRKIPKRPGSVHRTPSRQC

[2] = target: T2, Muscarinic acetylcholine receptor M1 (Homo sapiens, UniProt P11229); assay: Positive allosteric modulation of human muscarinic M1 receptor
T2 sequence (P11229 whole entry): T1 sequence (whole entry)

[3] = target: T1, Muscarinic acetylcholine receptor M1 (Homo sapiens); assay: Positive allosteric modulation of human muscarinic M1 receptor assessed as leftward fold shift of acetylcholine-induced response at 30 uM relative to acetylcholine
[4] = target: T1, Muscarinic acetylcholine receptor M1 (Homo sapiens); assay: Positive allosteric modulation of human muscarinic M1 receptor at 30 uM

SMILES: Cn1cc(-c2ccc(CN3C(=O)C(=O)c4ccccc43)c(F)c2)cn1
- Emax [1]: 45%
- pEC50 [2]: 6.22
- fold change (FC) [3]: 2.7

SMILES: Cc1nn(C)cc1-c1ccc(CN2C(=O)C3(CCN(C4CCCC4)C3)c3ccccc32)c(F)c1 (stereo not drawn)
- Emax [1]: 41%
- EC50 [2]: 3 µM

SMILES: Cn1cc(-c2ccc(CN3C(=O)C4(CCN(C5CCCC5)C4)c4ccccc43)cc2F)cn1 (stereo not drawn)
- Emax [1]: 28%
- EC50 [2]: 2 µM

SMILES: Cn1cc(-c2cc(F)c(CN3C(=O)C4(CCN(C5CCCC5)C4)c4ccccc43)c(F)c2)cn1 (stereo not drawn)
- Emax [1]: 66%
- EC50 [2]: 2.6 µM

SMILES: Cn1cc(-c2ccc(CN3C(=O)C4(CCN(C5CCCC5)C4)c4ccccc43)c(F)c2F)cn1 (stereo not drawn)
- Emax [1]: 43%
- EC50 [2]: > 10 µM

SMILES: Cn1cc(-c2cc(F)c(CN3C(=O)C4(CCN(C5CCCC5)C4)c4ccccc43)cc2F)cn1 (stereo not drawn)
- Emax [1]: 51%
- EC50 [2]: 4.1 µM

SMILES: Cn1cc(-c2ccc(CN3C(=O)C4(CCN(C5CCCC5)C4)c4ccccc43)cc2)cn1 (stereo not drawn)
- Emax [1]: 44%
- EC50 [2]: 1.8 µM

SMILES: CN1CCC2(CCN(Cc3ccc(-c4cnn(C)c4)cc3F)C2=O)C1 (stereo not drawn)
- Emax [1]: 28%
- EC50 [2]: > 10 µM

SMILES: CN1CCC2(CC1)C(=O)N(Cc1ccc(-c3cnn(C)c3)cc1F)c1ccccc12
- Emax [1]: 49%
- EC50 [2]: 3.8 µM

SMILES: Cn1cc(-c2ccc(CN3C(=O)C4(CCNCC4)c4ccccc43)c(F)c2)cn1
- Emax [1]: 29%
- EC50 [2]: > 10 µM

SMILES: Cn1cc(-c2ccc(CN3C(=O)C4(OCCO4)c4ccccc43)c(F)c2)cn1
- Emax [1]: 62%
- EC50 [2]: 2 µM
- fold change (FC) [3]: 27

SMILES: Cn1cc(-c2ccc(CN3CC4(OCCO4)c4ccccc43)c(F)c2)cn1
- Emax [1]: 43%
- EC50 [2]: > 10 µM

SMILES: Cn1cc(-c2ccc(CN3C(=O)C4(CCCO4)c4ccccc43)cc2)cn1 (stereo not drawn)
- Emax [1]: 43%
- EC50 [2]: > 10 µM

SMILES: CN1CCCC12C(=O)N(Cc1ccc(-c3cnn(C)c3)cc1)c1ccccc12 (stereo not drawn)
- Emax [1]: 53%
- EC50 [2]: > 10 µM

SMILES: CN1CCCC12C(=O)N(Cc1ccc(Br)cc1)c1ccccc12 (stereo not drawn)
- Activity [4]: inactive

SMILES: C[Si](C)(C)C1COC2(C1)C(=O)N(Cc1ccc(Br)cc1)c1ccccc12 (stereo not drawn)
- Activity [4]: inactive

SMILES: Cc1c(-c2ccc(CN3C(=O)C4(CCN(C5CCCC5)C4)c4ccccc43)c(F)c2)cnn1C (stereo not drawn)
- Activity [4]: inactive

SMILES: Cc1nn(C)c(C)c1-c1ccc(CN2C(=O)C3(CCN(C4CCCC4)C3)c3ccccc32)c(F)c1 (stereo not drawn)
- Activity [4]: inactive

SMILES: Cn1cc(-c2ccc(CN3C(=O)C4(CCN(C5CCCC5)C4)c4ccccc43)c(F)c2)c(C(F)(F)F)n1 (stereo not drawn)
- Activity [4]: inactive

SMILES: Cn1cc(-c2ccc(CN3C(=O)C4(CCNC4)c4ccccc43)c(F)c2)cn1 (stereo not drawn)
- Activity [4]: inactive

SMILES: O=C1N(Cc2ccc(Br)cc2)c2ccccc2C12CCCN2 (stereo not drawn)
- Activity [4]: inactive

SMILES: O=C1N(Cc2ccc(Br)cc2)c2ccccc2C12CCCO2 (stereo not drawn)
- Activity [4]: inactive

SMILES: Cn1cc(-c2ccc(CN3C(=O)C4(CCN(c5ncccn5)C4)c4ccccc43)c(F)c2)cn1 (racemic)
- Emax [1]: 64%
- EC50 [2]: 2.5 µM
- fold change (FC) [3]: 17.4

SMILES: CCN1CCC2(C1)C(=O)N(Cc1ccc(-c3cnn(C)c3)cc1F)c1ccccc12 (racemic)
- Emax [1]: 59%
- EC50 [2]: 3.2 µM
- fold change (FC) [3]: 8.3

SMILES: Cn1cc(-c2ccc(CN3C(=O)C4(CCN(CCF)C4)c4ccccc43)c(F)c2)cn1 (racemic)
- Emax [1]: 60%
- EC50 [2]: 4.1 µM
- fold change (FC) [3]: 13.5

SMILES: Cn1cc(-c2ccc(CN3C(=O)C4(CCN(CC(F)F)C4)c4ccccc43)c(F)c2)cn1 (racemic)
- Emax [1]: 52%
- EC50 [2]: > 10 µM
- fold change (FC) [3]: 5.9

SMILES: CC(=O)N1CCC2(C1)C(=O)N(Cc1ccc(-c3cnn(C)c3)cc1F)c1ccccc12 (racemic)
- Emax [1]: 41%
- EC50 [2]: > 10 µM

SMILES: Cn1cc(-c2ccc(CN3C(=O)C4(CCN(C(=O)C5CCC5)C4)c4ccccc43)c(F)c2)cn1 (racemic)
- Emax [1]: 45%
- EC50 [2]: 6.3 µM

SMILES: Cn1cc(-c2ccc(CN3C(=O)C4(CCN(C(=O)C5CCCCC5)C4)c4ccccc43)c(F)c2)cn1 (racemic)
- Emax [1]: 50%
- EC50 [2]: 5 µM

SMILES: Cn1cc(-c2ccc(CN3C(=O)C4(CCN(S(C)(=O)=O)C4)c4ccccc43)c(F)c2)cn1 (racemic)
- Emax [1]: 41%
- EC50 [2]: > 10 µM

SMILES: Cn1cc(-c2ccc(CN3C(=O)C4(CCN(C5CCC5)C4)c4ccccc43)c(F)c2)cn1 (racemic)
- Emax [1]: 48%
- EC50 [2]: > 10 µM

SMILES: Cn1cc(-c2ccc(CN3C(=O)C4(CCN(C5CCCC5)C4)c4ccccc43)c(F)c2)cn1 (racemic) [listing 1 of 2 here]
- EC50 [2]: 3.1 µM

SMILES: Cn1cc(-c2ccc(CN3C(=O)C4(CCN(C5CCCCC5)C4)c4ccccc43)c(F)c2)cn1 (racemic)
- Emax [1]: 60%
- EC50 [2]: 5.2 µM

SMILES: Cn1cc(-c2ccc(CN3C(=O)C4(CCN(C5CCCCCC5)C4)c4ccccc43)c(F)c2)cn1 (racemic)
- Emax [1]: 50%
- EC50 [2]: 7.5 µM

SMILES: CC(C)N1CCC2(C1)C(=O)N(Cc1ccc(-c3cnn(C)c3)cc1F)c1ccccc12 (racemic)
- Emax [1]: 30%
- EC50 [2]: > 10 µM

SMILES: Cn1cc(-c2ccc(CN3C(=O)C4(CCN(C(=O)OC(C)(C)C)C4)c4ccccc43)c(F)c2)cn1 (racemic)
- Activity [4]: inactive

SMILES: Cn1cc(-c2ccc(CN3C(=O)C4(CCN(C5CCCC5)C4)c4ccccc43)c(F)c2)cn1 (racemic) [listing 2 of 2 here]
- Emax [1]: 57%

SMILES: Cn1cc(-c2ccc(CN3C(=O)C4(CCN(CC(F)(F)F)C4)c4ccccc43)c(F)c2)cn1 (racemic)
- Activity [4]: inactive

SMILES: Cn1cc(-c2ccc(CN3C(=O)C4(CCN(c5ccccc5)C4)c4ccccc43)c(F)c2)cn1 (racemic)
- Activity [4]: inactive

SMILES: CN1CCC2(C1)C(=O)N(Cc1ccc(-c3cnn(C)c3)cc1F)c1ccccc12 (single isomer, unassigned) [listing 1 of 2 here]
- EC50 [2]: 2.9 µM

SMILES: CN1CCC2(C1)C(=O)N(Cc1ccc(-c3cnn(C)c3)cc1F)c1ccccc12 (single isomer, unassigned) [listing 2 of 2 here]
- Emax [1]: 50%
- fold change (FC) [3]: 7.2

SMILES: Cn1cc(-c2ccc(CN3C(=O)C4(CCN(C5CCCC5)C4)c4ccccc43)c(F)c2)cn1 (single isomer, unassigned; 19g) [listing 1 of 2 here]
- EC50 [2]: 1.6 µM

SMILES: Cn1cc(-c2ccc(CN3C(=O)C4(CCN(C5CCCC5)C4)c4ccccc43)c(F)c2)cn1 (single isomer, unassigned; 19g) [listing 2 of 2 here]
- Emax [1]: 69%
- fold change (FC) [3]: 28

SMILES: Cn1cc(-c2ccc(CN3C(=O)C4(CCN(C5CCCC5)C4)c4ccccc43)c(F)c2)cn1 (single isomer, unassigned; 19h)
- Emax [1]: 33%

SMILES: CN1CCC2(C1)C(=O)N(Cc1ccc(-c3cnn(C)c3)cc1F)c1ccccc12 (stereo in doubt; 18d) [listing 1 of 2 here]
- EC50 [2]: 3.2 µM

SMILES: CN1CCC2(C1)C(=O)N(Cc1ccc(-c3cnn(C)c3)cc1F)c1ccccc12 (stereo in doubt; 18d) [listing 2 of 2 here]
- Emax [1]: 65%

SMILES: CN1CCC2(C1)C(=O)N(Cc1ccc(-c3cnn(C)c3)cc1F)c1ccccc12 (stereo in doubt; 19a) [listing 1 of 2 here]
- EC50 [2]: 2.9 µM

SMILES: CN1CCC2(C1)C(=O)N(Cc1ccc(-c3cnn(C)c3)cc1F)c1ccccc12 (stereo in doubt; 19a) [listing 2 of 2 here]
- Emax [1]: 67%
- fold change (FC) [3]: 21
